The IC50 is the concentration at which inhibition is half-maximal. Low values mean higher potency, high ones lower potency.

The values that follow come from ChEMBL document CHEMBL4184275 (Bioorg Med Chem Lett, 2018).

Each structure is given as a SMILES string. Bridge positions count the residues as written; N and C are the ends. Peptide text beside a SMILES is read from it.

Experiment [1] concerns HL-60. Kind of experiment: cells. To be noted: Homo sapiens.
Description: Antiproliferative activity against human HL60 cells
Experiment [2] relates to MCF7. Kind of experiment: Antiproliferative activity against human MCF7 cells. In kind it is functional, cell-based.
Experiment [3] concerns the target T1, Prolyl oligopeptidase family protein (Flavobacterium psychrophilum (strain JIP02/86 / ATCC 49511), UniProt A6H249).
T1 sequence (A6H249 whole entry): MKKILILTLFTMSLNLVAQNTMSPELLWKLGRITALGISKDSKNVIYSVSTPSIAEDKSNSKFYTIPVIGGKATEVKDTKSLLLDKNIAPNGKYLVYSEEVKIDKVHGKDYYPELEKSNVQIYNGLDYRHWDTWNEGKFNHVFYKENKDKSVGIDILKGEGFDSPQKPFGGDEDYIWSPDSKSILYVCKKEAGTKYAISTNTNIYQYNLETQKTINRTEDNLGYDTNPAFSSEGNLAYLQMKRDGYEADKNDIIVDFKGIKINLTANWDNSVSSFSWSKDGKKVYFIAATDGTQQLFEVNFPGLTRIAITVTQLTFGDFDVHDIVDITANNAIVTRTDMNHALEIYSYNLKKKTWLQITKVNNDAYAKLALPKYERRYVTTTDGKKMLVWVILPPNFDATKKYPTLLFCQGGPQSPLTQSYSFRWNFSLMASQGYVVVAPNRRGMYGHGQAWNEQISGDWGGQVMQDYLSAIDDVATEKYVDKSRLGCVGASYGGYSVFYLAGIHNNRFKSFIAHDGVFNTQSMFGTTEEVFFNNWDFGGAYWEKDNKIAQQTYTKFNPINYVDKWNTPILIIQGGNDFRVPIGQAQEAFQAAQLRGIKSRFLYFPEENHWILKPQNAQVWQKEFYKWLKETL
The experiment is described as follows: Inhibition of Flavobacterium POP preincubated for 5 mins followed by Z-Gly-Pro-pNA substrate measured after 30 mins.

The target in experiment [4] is T2, Prolyl endopeptidase (Homo sapiens, UniProt P48147).
T2 sequence (P48147 whole entry): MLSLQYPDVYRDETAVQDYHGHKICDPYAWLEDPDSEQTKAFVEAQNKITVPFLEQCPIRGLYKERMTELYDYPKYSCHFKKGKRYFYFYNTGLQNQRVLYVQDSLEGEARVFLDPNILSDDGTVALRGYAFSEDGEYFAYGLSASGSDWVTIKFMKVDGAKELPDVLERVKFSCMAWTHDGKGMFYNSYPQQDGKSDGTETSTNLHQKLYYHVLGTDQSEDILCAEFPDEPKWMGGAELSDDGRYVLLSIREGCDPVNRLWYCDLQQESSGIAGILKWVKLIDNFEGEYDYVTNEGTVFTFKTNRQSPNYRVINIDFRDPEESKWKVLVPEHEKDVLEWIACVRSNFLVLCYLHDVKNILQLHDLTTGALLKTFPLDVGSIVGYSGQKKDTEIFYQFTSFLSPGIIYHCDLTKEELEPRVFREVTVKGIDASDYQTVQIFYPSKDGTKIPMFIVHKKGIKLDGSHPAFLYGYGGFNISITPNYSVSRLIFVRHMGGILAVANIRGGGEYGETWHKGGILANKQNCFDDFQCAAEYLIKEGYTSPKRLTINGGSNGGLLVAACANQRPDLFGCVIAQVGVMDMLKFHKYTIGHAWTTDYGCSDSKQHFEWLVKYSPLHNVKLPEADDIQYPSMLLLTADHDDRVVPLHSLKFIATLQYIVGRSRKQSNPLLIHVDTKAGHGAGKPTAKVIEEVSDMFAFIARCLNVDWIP
Kind of experiment: Inhibition of prolyl oligopeptidase (unknown origin).

Compound `CC[C@@]1(O)C(=O)OCc2c1cc1n(c2=O)Cc2cc3ccccc3nc2-1` [CAMPTOTHECIN] yielded a half-inhibitory concentration (IC50) in experiment [1] of 6.7 nM.

Take `CC(=O)Oc1c2oc3cc(O)c(O)cc3c2c(OC(C)=O)c2oc3cc(O)c(O)cc3c12` [POLYOZELLIN]: the IC50 came to 1100 nM in experiment [1], 35100 nM in experiment [2] and 1200 nM in experiment [3].

With `CC(=O)Oc1c(OC(C)=O)c2c3cc(O)c(O)cc3oc2c2oc3cc(O)c(O)cc3c12`, the 50% inhibitory concentration (IC50) in experiment [1] was determined as 2000 nM; in experiment [2], 26900 nM; in experiment [3], 770 nM.

Turning to `CC[C@H](C)[C@H](NC(=O)[C@H](Cc1ccccc1)NC(=O)[C@@H](NC(=O)[C@H](Cc1cnc[nH]1)NC(=O)CNC(=O)CNC(=O)[C@H](Cc1ccccc1)NC(=O)[C@H](CC(C)C)NC(=O)[C@@H]1CC(=O)NCC(=O)N[C@@H](Cc2ccc(O)cc2)C(=O)N2CCC[C@H]2C(=O)N[C@@H](Cc2c[nH]c3ccccc23)C(=O)N[C@@H](Cc2c[nH]c3ccccc23)C(=O)N[C@@H](CC(=O)O)C(=O)N[C@@H](Cc2ccc(O)cc2)C(=O)N[C@@H](CCCNC(=N)N)C(=O)N1)[C@@H](C)O)C(=O)N[C@@H](CO)C(=O)N1CCC[C@H]1C(=O)O` (GYPWWDYRDLFGGHTFISP-OH; lactam N-9), the IC50 in experiment [4] is 950 nM; in experiment [1], > 20000 nM.
